Patent US20200188511A1, “METHODS OF IMPROVING EFFICACY OF ALLERGY VACCINES” (ANERGIS S.A., priority 2018, published 2020)

Test system: Bet v 1-specific IgE
Assay: In vitro IgE binding (IgE ELISA competition and basophil degranulation assays)
Set-up: species or system human
Description: These experiments are necessary to ensure that the presentation of the peptides in the Bet v1 COP-Virosomes is not associated with the appearance of unexpected binding to pre-existing Bet v 1-specific IgE.
Bet v 1 at 2 μg/ml was coated overnight on 96-well Nunc Maxisorp® immunoplates (Thermo Fisher Scientific Inc., Wohlen, Switzerland). Sera from birch allergic persons were diluted either ten-fold or twenty-fold (depending on Bet v 1 specific IgE content) and added to serial dilutions of either Bet v 1 or COPs virosomes and incubated for 15 minutes on ice. Serial dilutions of Bet v 1 and COPs virosomes ranged from 10^−6 M to 10^−12 M, final concentration. Serum antigen mixtures were then added to the ELISA plates.

IgE binding	Molecule
absence of detectable IgE binding	Aller T1: COP peptide of 49 amino acids, aa 2-50 of Bet v 1 (SEQ ID 4) (GVFNYETETTSVIPAARLFKAFILDGDNLFPKVAPQAISSVENIEGNGG)
absence of detectable IgE binding	Aller T3: COP peptide of 55 amino acids, aa 106-160 of Bet v 1 (SEQ ID 4) (VATPDGGSILKISNKYHTKGDHEVKAEQVKASKEMGETLLRAVESYLLAHSDAYN)
absence of detectable IgE binding	Aller T2: COP peptide of 71 amino acids, aa 48-118 of Bet v 1 (SEQ ID 4) (peptide) NGGPGTIKKISFPEGFPFKYVKDRVDEVDHTNFKYNYSVIEGGPIGDTLEKISNEIKIVATPDGGSILKIS
